Data reported in PubChem BioAssay AID624491 (Broad Institute, 2012).
Active and inactive are the calls of the source.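 The calls were made as follows: active = fitted curve crossing a set activation limit at or below the highest valid dose tested; inconclusive = flat fit at 30 to 70% activation, or poor fit; inactive = the rest, including signal decreases.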

System: D54 ERlucT glycosylation luciferase reporter, luminescence, 24 h
Assay: N-linked glycosylation inhibitors, luciferase reporter, dose response, D54 ERlucT cells, luminescence, cherry-picks (AID 624491);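 also: signal gain reflects blocked N-linked glycosylation of a luciferase reporter; actives raise luciferase signal so AC26 marks activators of the reporter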

Row | SMILES | AC26
1 | CCCOc1ccc2ccccc2c1/C=N/n1c(C)nnc1-n1nc(C)cc1C | 503 nM
2 | COc1ccc(C(C)(O)c2nc(-c3ccc(F)cc3OC)cs2)cc1 (stereo unspecified) | 5930 nM
3 | C[C@@]12C(=O)Nc3cc(Cl)ccc3C(=O)N1[C@H]1c3cc(Br)ccc3OC[C@@H]1[C@@H]2c1ccccc1 | 961 nM
4 | Cn1cc(C(=O)N/N=C/C(Br)=C/c2ccccc2)ccc1=O | 2850 nM
5 | CCOC(=O)c1c(NC(=O)CN2C(=O)NC3(CCCCC3C)C2=O)sc(C)c1CC (stereo unspecified) | 6750 nM
6 | CC(C)C(=O)Nc1ccc(C(=O)N/N=C/c2cc(Br)cc(Br)c2O)cc1 | 9890 nM
7 | CS(=O)(=O)c1cccc(C(=O)Nc2ccc(-c3nc4ccccc4[nH]3)cc2)c1 | 3070 nM
8 | COc1cc(C(=O)OCC(C)=O)ccc1OCc1c(C)noc1C | 3270 nM
9 | O=C1NC(=O)N(Cc2ccccc2)C(=O)/C1=C/C=C/c1ccco1 | 1080 nM
10 | Cc1[nH]c(C)c(C(=O)/C=C/c2ccc([N+](=O)[O-])cc2)c1C | 633 nM
11 | O=C(CSCc1ccco1)Nc1cc(C(F)(F)F)ccc1N1CCOCC1 | 2080 nM
12 | COc1ccc([C@@H]2[C@@H]3C(=O)N(C(C)(C)C)C(=O)[C@@H]3[C@]3(Cc4ccccc4)C(=O)N(c4cccc(Br)c4)C(=O)N23)cc1 | 1600 nM
13 | CC(C)c1c(C(=O)Nc2ccccc2)c(-c2ccccc2)c(-c2ccc(F)cc2)n1CC[C@@H](O)C[C@@H](O)CC(=O)O | 68.2 nM
14 | COc1cc(C2CC(=O)Nc3cc(C)c(C)cc32)cc(OC)c1OC (stereo unspecified) | 8880 nM
15 | CCOc1ccccc1C(=O)Nc1ccsc1C(=O)OC | 1300 nM
16 | CC(=O)Nc1cccc(-c2ccnc3c2CC(C)(C(=O)NCc2ccco2)O3)c1 (stereo unspecified) | 617 nM
17 | CCCn1c(CN2CCN(C(=O)OCC)CC2)nc2cc(NC(=O)CC)ccc21 | 9150 nM
18 | COc1cccc(C(NC(C)=O)c2nc(-c3ccccc3C)cs2)c1 (stereo unspecified) | 774 nM
19 | CCOc1cc(C)nc(NCc2ccccc2)n1 | 14300 nM
20 | CC(C)CCN(C(=O)Cc1ccc(Cl)c(Cl)c1)c1c(N)n(Cc2ccccc2)c(=O)[nH]c1=O | 2080 nM
21 | CCOC(=O)c1c(CN(C)C)n(C)c2c(O)c(N=NC(N)=O)c3ccc(Br)cc3c12 | 242 nM
22 | O=C(C=Cc1ccccn1)c1ccccc1O | 1250 nM

Row | SMILES | AC26
23 | O=C1NC(=O)C(=Cc2c(Cl)cccc2Cl)C(=O)N1 | 2240 nM
24 | O=C(/C=C/c1ccc(-c2ccccc2[N+](=O)[O-])o1)c1ccc(Br)cc1 | 4780 nM
25 | CCOc1ccc(Br)cc1C(=O)Nc1ccc(C(=O)NCC(C)C)cc1 | 4090 nM
26 | COc1cc2ccccc2cc1C(=O)N/N=C/c1cccs1 | 232 nM
27 | COc1cccc(-c2nn(C)c3sc(C(=O)NCc4ccco4)cc23)c1 | 3620 nM
28 | CCOC(=O)c1c(C)c(C(=O)Nc2cc(F)ccc2F)c(C)n1C | 12600 nM
29 | Nc1ncnc(Sc2ccc(Cl)cc2)c1[N+](=O)[O-] | 13400 nM
30 | CC(C)(C)S(=O)(=O)N1C[C@H]2CC/C=C\C/C(c3ccccc3)=C\2[C@@H]1CCO | 1030 nM
31 | COc1cccc(Oc2ccc(C(F)(F)F)cc2NC(=O)CN2C(=O)NC3(CCCC3)C2=O)c1 | 4850 nM
32 | COc1ccc2c(c1)[C@H]1[C@H](CO2)[C@H](c2ccccc2)[C@]2(C)C(=O)Nc3cc(C)ccc3C(=O)N12 | 51.9 nM
33 | C[C@@]12C(=O)Nc3ccc(F)cc3C(=O)N1[C@H]1c3cc(Cl)ccc3OC[C@@H]1[C@@H]2c1ccccc1 | 1070 nM
34 | CC(=O)Nc1cccc(-c2ccnc3c2CC(C(=O)Nc2ccc4c(c2)OCO4)O3)c1 (stereo unspecified) | 4550 nM
35 | COc1cc2c(cc1OC)C(c1cc(Br)ccc1F)N(C(=O)CCl)CC2 (stereo unspecified) | 2280 nM
36 | O=C1NC(=O)N(Cc2ccco2)C(=O)/C1=C/C=C/c1ccco1 | 953 nM
37 | O=C(COC(=O)c1cccc(Br)c1)Nc1cccc2c1C(=O)c1ccccc1C2=O | 4290 nM
38 | COc1ccc(CNCC(=O)Nc2ccccc2-n2cccc2)cc1 | 922 nM
39 | CCN(CCCNC(=O)CCCOc1cc(=O)n(C)c2ccccc12)Cc1ccccc1 | 3420 nM
40 | COc1ccc(C(=O)/C=C/c2ccccc2)c(O)c1 | 1520 nM
41 | CCc1ccc(N2C(=O)Nc3ccccc3C2(O)C(=O)N2CCN(c3ccccn3)CC2)cc1 (stereo unspecified) | 625 nM
42 | CC(=O)Nc1cccc(NC(=O)c2ccccc2OCc2ccccc2)c1 | 1350 nM
43 | NC(=O)N=Nc1c2[nH]c3ccccc3nc-2c2ccccc12 | 1130 nM
44 | CCN(CC)CCn1c2ccccc2c2nc3ccc([N+](=O)[O-])cc3cc21 | 7740 nM

Row | SMILES | AC26
45 | COc1cc(C(=O)OCCc2cc3ccccc3c(=O)o2)cc(OC)c1OC | 562 nM
46 | COc1ccc2nc(SCC(=O)NC3CCCC3)c(C)cc2c1 | 10200 nM
47 | Cc1ccc2oc(C(=O)NCc3ncc(C)[nH]3)c(C)c2c1 | 6750 nM
48 | CCn1c2ccccc2c2cc(NC(=O)COC(=O)Cc3cn4ccsc4n3)ccc21 | 1790 nM
49 | COc1ccc(CCn2c(=N)c(S(=O)(=O)c3ccc(C)cc3)cc3c(=O)n4ccccc4nc32)cc1 | 988 nM
50 | COc1ccc(CCn2c(O)c(C=NCc3ccc4c(c3)OCO4)c(=O)[nH]c2=O)cc1OC | 3430 nM
51 | C=CCn1c(O)c(/C=C2/C=CC=N2)c(=O)[nH]c1=O | 3080 nM
52 | O=C(NCCC1=CCCCC1)C1CCC(CNc2nc(=S)[nH]c3ccccc23)CC1 (stereo unspecified) | 3920 nM
53 | O=CC1=C(c2ccccc2)Oc2ccccc2O1 | 10300 nM
54 | COc1ccc(C(=O)/C=C/c2ccc(-c3ccccc3)cc2)cc1CSCC(=O)O | 1480 nM
55 | CC(=O)Nc1cccc(-c2ccnc3c2CC(C)(C(=O)NCC2CC2)O3)c1 (stereo unspecified) | 5110 nM
56 | Cc1[nH][nH]c(=O)c1C(c1ccc(-c2cccc(Cl)c2)o1)c1c(C)[nH][nH]c1=O | < 1.2 nM
57 | O=C(Nc1cccc(-c2cn3ccccc3n2)c1)c1cccc(Cl)c1 | 1750 nM
58 | COc1ccc2[nH]c(C(=O)N/N=C/c3ccccc3OC)cc2c1 | 1010 nM
59 | COc1ccc2c(-c3cc4ccc(OCc5ccc(F)cc5)cc4oc3=O)cc(=O)oc2c1 | 4410 nM
60 | Cc1cc(C)c2nc3nc(C)c(C)cc3c(N)c2c1 | 998 nM
61 | Cc1ccc(COc2cccc(/C=N/NC(=O)c3nnn(-c4nonc4N)c3C)c2)cc1 | 1160 nM
62 | CCn1c2ccccc2c2cc(/C=N/NC(=O)c3ccc(O)cc3)ccc21 | 2160 nM
63 | Cc1ccc2c(c1)[C@H]1[C@H](CO2)[C@H](c2ccccc2)[C@]2(C)C(=O)Nc3ccc(Br)cc3C(=O)N12 | 1430 nM
64 | CCN(CC)CCOc1ccc2c(c1)C(=NNC(=O)c1ccccn1)c1cc(OCCN(CC)CC)ccc1-2 | 530 nM
65 | CC(C)/C=C1\CC/C(=C\c2cccnc2)C1=O | 4840 nM
66 | CC(/C=N/NC(=O)c1cc(-c2ccccc2)nc2ccccc12)=C\c1ccco1 | 2040 nM

Row | SMILES | AC26
67 | Cc1ccnc(NC(=O)CCCOc2cc(=O)n(C)c3ccccc23)c1 | 14900 nM
68 | NC(=O)COc1ccc(C(=O)/C=C2/C(=O)Nc3ccccc32)cc1 | 3180 nM
69 | CCn1c(=S)[nH]c2cc(S(=O)(=O)N3CCCCC3)ccc21 | 1090 nM
70 | CCOc1ccc(OCC(=O)N(CCC2=CCCCC2)c2c(N)n(Cc3ccccc3)c(=O)[nH]c2=O)cc1 | 4380 nM
71 | C=C1c2nc3ccccc3n2C=C(c2ccc(C)cc2)N1c1ccccc1 | 9580 nM
72 | COc1ccc(-c2oc3cc(O)c(OC)c(O)c3c(=O)c2OC)cc1O | 246 nM
73 | Cn1cccc1/C=C1\C(=O)NC(=O)N(Cc2ccccc2)C1=O | 267 nM
74 | Cc1cc2oc(C(=O)Nc3c(C)n(C)n(-c4ccccc4)c3=O)c(C)c2cc1Cl | 781 nM
75 | O=C1NC[C@H](Cc2ccccc2)N(C[C@H]2CCCN2C[C@H](Cc2ccccc2)N2C[C@H](Cc3ccc(O)cc3)N(CCc3ccccc3)C(=O)C2=O)C1=O | 5790 nM
76 | O=C(N/N=C\C=C\c1ccc([N+](=O)[O-])o1)c1cccs1 | 7850 nM
77 | CCN1C(=O)c2cccc3c(S(=O)(=O)NCC4CCCO4)ccc1c23 (stereo unspecified) | 2990 nM
78 | COc1ccc(OC)c(-c2cc(-c3cccnc3)nc(N)c2C#N)c1 | 2230 nM
79 | COc1ccc2nc3ccccc3nc2c1NC(=O)c1ccccc1Cl | 11400 nM
80 | N#Cc1cc2[nH]c3ccccc3c2[n+](-c2ccc([N+](=O)[O-])cc2)c1N | 4410 nM
81 | O=C(N/N=C\c1cn(-c2ccccc2)nc1-c1ccccc1)c1ccc(Br)o1 | 9570 nM
82 | COC(=O)c1ccc(/C=C/C(=O)c2ccc(OC)c(OC)c2)cc1 | 4100 nM
83 | COc1cc(F)ccc1-c1csc(C(NC(C)=O)c2ccc(F)c(F)c2)n1 (stereo unspecified) | 681 nM
84 | CCCOC(=O)c1[nH]c2c(c1C)C(=O)CC(c1cccs1)C2 (stereo unspecified) | 623 nM
85 | O=C(/C=C/c1cccc(Br)c1)c1ccc2c(c1)OCO2 | 7470 nM
86 | COC(=O)/C=C1\C(=O)N(c2nc3ccccc3s2)C(=S)N1c1ccc(F)cc1 | 2300 nM
87 | CN1CCN(C(c2ccc(Br)cc2)c2cc(Cl)c3cccnc3c2O)CC1 (stereo unspecified) | 1810 nM
88 | O=C(NCCN1C(=O)S/C(=C\c2ccccc2F)C1=O)C1=COCCO1 | 52.9 nM

Row | SMILES | AC26
89 | Cc1ccc(S(=O)(=O)N(C)C[C@H]2Oc3ccc(NC(=O)C4CCCCC4)cc3C(=O)N([C@H](C)CO)C[C@H]2C)cc1 | 1140 nM
90 | O=C(NCC1CCCO1)c1cc(-c2ccccc2)on1 (stereo unspecified) | 6450 nM
91 | NC(N)=N/N=C/c1ccc2cccc(OCc3ccccc3)c2n1 | 4150 nM
92 | O=C(Cc1ccc(-c2ccccc2)cc1)NCc1ccccc1 | 27.8 nM
93 | COc1cc(OC)cc(C(=O)N2CC(=O)Nc3ccccc32)c1 | 565 nM
94 | COCCOC(=O)c1[nH]c2c(c1C)C(=O)CC(c1cccs1)C2 (stereo unspecified) | 1380 nM
95 | C[C@H](CO)N1C[C@H](C)[C@@H](CN(C)S(=O)(=O)c2cccs2)Oc2c(NC(=O)Cc3ccccc3)cccc2C1=O | 2250 nM
96 | O=C(NCCc1ccc(F)cc1)c1coc(=O)c(Br)c1 | 413 nM
97 | O=C(NCc1ccccc1)C(=O)NCC1COc2ccccc2O1 (stereo unspecified) | 13000 nM
98 | CCOC(=O)/C=C/C(=O)Nc1ccc(S(=O)(=O)N(C)c2ccccc2)cc1 | > 5000 nM (inactive)
99 | O=c1[nH]c(=O)c2nc3c4ccccc4c4ccccc4c3nc2[nH]1 | 392 nM
100 | O=C(N/N=C/c1ccco1)c1ccccc1OCc1ccccc1Cl | 1010 nM
101 | COc1cccc(-c2cnc3c(NC(C)=O)cc(-c4cc(F)ccc4OC)cn23)c1 | 1600 nM
102 | COc1ccccc1-c1nnc2sc(-c3cc4ccccc4o3)nn12 | 63.7 nM
103 | CC#CCN1c2ccccc2[C@]23C[C@@H](C(=O)OC)N(C(=O)c4cc(C)oc4C)C2=NC(C(=O)OC)=C(C(=O)OC)[C@H]13 | 1790 nM
104 | Cc1ccc(C(=O)NC(=C(Cl)Cl)S(=O)(=O)c2ccc(C)cc2)cc1 | 2550 nM
105 | COc1ccc(-n2c(C)cc(C(=O)CCl)c2C)cc1 | 3980 nM
106 | C=CCn1c(O)c(C(CC)=NC(C)c2ccccc2)c(=O)[nH]c1=O (stereo unspecified) | 3140 nM
